Assay results published in patent publication US20070004649A1, “Anti-influenza virus compound comprising biflavonoid-sialic acid glycoside” (The Kitasato Institute, priority 2003, published 2007).
pIC50: −log10 of the molar value. Read-outs that look alike come from different tables or passages of the source.

Tests used:
[1] = target: A/Guizhou/54/89 virus sialidase (Influenza A virus, UniProt I6UMM5); assay: Inhibitory activity against influenza A/Guizhou/54/89 virus sialidase (4-MU-NeuAc substrate, HA vaccine as enzyme); type: biochemical, influenza virus A/Guizhou/54/89 (H3N2 subtype)
Sequence of A/Guizhou/54/89 virus sialidase (I6UMM5 1-469): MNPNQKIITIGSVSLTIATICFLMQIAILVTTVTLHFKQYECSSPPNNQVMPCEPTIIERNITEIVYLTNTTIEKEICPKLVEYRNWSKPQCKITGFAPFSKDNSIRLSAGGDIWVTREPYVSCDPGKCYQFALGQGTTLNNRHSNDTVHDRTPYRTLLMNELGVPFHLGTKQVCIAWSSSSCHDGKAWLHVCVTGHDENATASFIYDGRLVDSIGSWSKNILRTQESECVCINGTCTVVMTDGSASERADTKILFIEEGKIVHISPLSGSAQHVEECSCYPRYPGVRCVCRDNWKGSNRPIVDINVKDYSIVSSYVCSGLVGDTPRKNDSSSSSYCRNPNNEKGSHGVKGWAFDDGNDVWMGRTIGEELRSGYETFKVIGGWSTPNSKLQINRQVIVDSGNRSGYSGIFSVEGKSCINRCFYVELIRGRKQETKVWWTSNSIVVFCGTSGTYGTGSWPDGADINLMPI

[2] = tested on: MDCK (Madin-Darby canine kidney) cells; assay: Cytotoxicity in non-infected MDCK cells (MTT method); details: 12.5 μg/mL, three days
[3] = target: A/PR/8/34 virus sialidase (Influenza A virus, UniProt P03468); assay: Inhibitory activity against influenza A/PR/8/34 virus sialidase (4-MU-NeuAc substrate, HA vaccine as enzyme); type: biochemical, influenza virus A/PR/8/34 (H1N1 subtype)
Sequence of A/PR/8/34 virus sialidase (P03468 whole entry): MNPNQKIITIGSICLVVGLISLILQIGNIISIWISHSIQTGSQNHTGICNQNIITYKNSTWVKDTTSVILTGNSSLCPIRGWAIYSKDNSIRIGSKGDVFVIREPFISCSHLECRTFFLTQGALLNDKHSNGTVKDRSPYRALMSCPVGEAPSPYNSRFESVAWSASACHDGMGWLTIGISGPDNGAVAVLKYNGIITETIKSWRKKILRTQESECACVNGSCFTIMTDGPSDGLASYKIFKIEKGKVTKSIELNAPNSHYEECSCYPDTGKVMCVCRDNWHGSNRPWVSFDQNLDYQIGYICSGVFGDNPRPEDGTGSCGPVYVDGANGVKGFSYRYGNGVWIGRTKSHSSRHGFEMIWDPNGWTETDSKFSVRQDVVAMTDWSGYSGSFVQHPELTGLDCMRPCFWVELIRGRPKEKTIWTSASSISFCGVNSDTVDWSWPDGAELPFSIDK

[4] = target: B/Ibaraki/2/85 virus sialidase (Influenza B virus, UniProt P16207); assay: Inhibitory activity against influenza B/Ibaraki/2/85 virus sialidase (4-MU-NeuAc substrate, HA vaccine as enzyme); type: biochemical, influenza virus B/Ibaraki/2/85
Sequence of B/Ibaraki/2/85 virus sialidase (P16207 whole entry): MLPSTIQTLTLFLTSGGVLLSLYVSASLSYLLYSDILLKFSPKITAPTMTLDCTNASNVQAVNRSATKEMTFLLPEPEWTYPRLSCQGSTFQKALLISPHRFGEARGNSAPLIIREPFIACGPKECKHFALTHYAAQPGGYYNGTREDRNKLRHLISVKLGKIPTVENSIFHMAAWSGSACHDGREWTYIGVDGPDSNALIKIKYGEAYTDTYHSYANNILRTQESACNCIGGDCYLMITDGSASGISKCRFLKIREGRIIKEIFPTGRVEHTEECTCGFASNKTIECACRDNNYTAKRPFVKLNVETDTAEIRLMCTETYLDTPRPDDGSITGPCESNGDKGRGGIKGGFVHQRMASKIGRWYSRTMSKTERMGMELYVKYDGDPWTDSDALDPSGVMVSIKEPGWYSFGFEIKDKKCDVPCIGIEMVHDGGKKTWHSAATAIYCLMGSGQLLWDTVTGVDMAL

influenza virus [5] = details: cited from earlier work
influenza virus [6] = details: cited from earlier work; remark: listed apart in the source
[7] = final concentration of 10 μg/mL

## COC(=O)C1(Oc2ccc(-c3cc(=O)c4c(O)cc(OC5(C(=O)OC)C[C@H](OC(C)=O)[C@@H](NC(C)=O)[C@H]([C@H](OC(C)=O)[C@@H](COC(C)=O)OC(C)=O)O5)c(-c5cc(-c6cc(=O)c7c(O)cc(OC)cc7o6)ccc5OC)c4o3)cc2)C[C@H](OC(C)=O)[C@@H](NC(C)=O)[C@H]([C@H](OC(C)=O)[C@@H](COC(C)=O)OC(C)=O)O1 (stereo partly drawn) [Gin-NeuAc-4, (R)-7,4′-di-O-methyl-7″-O-(1″″-methyl-4″″,7″″,8″″,9″″-tetra-O-acetyl-N-acetylneuraminyl)-4′″-O-(1′″″-methyl-4′″″,7′″″,8′″″,9′″″-tetra-O-acetyl-N-acetylneuraminyl)amentoflavone]
[1]; final concentration of 1 μg/mL
  inhibitory activity against the A/Guizhou/54/89 virus sialidase: about 50%

## (R)-7″-O-(N-acetylneuraminyl)-7,4-di-O-methylamentoflavone [Gin-Neu-1-(R)]
[1]
  IC50, A/Guizhou/54/89 virus sialidase: 1 µg/mL
[1]; final concentration of 1 μg/mL
  inhibitory activity against the A/Guizhou/54/89 virus sialidase: about 50%

## COC(=O)C1(Oc2cc(O)c3c(=O)cc(-c4ccc(O)cc4)oc3c2-c2cc(-c3cc(=O)c4c(O)cc(OC)cc4o3)ccc2OC)CC(OC(C)=O)C(NC(C)=O)C(C(OC(C)=O)C(COC(C)=O)OC(C)=O)O1 [Gin-NeuAc-3, (S)-7,4′-di-O-methyl-7″-O-(1″″-methyl-4″″,7″″,8″″,9″″-tetra-O-acetyl-N-acetylneuraminyl)a mentoflavone]
[1]; final concentration of 1 μg/mL
  inhibitory activity against the A/Guizhou/54/89 virus sialidase: about 50%

## (5)-7″-O-(N-acetylneuraminal)-7,4′-di-O-methylamentoflavone [Gin-Neu-1-(S)]
[1]; final concentration of 1 μg/mL
  inhibitory activity against the A/Guizhou/54/89 virus sialidase: about 50%

## COc1cc(O)c2c(=O)cc(-c3ccc(OC)c(-c4c(OC5(C(=O)O)CC(O)C(NC(C)=O)C(C(O)C(O)CO)O5)cc(O)c5c(=O)cc(-c6ccc(OC7(C(=O)O)CC(O)C(NC(C)=O)C(C(O)C(O)CO)O7)cc6)oc45)c3)oc2c1 [Gin-Neu-2-(S), (S)-7″,4′″-di-O-(N-acetylneuraminyl)-7,4′-di-O-methylamentoflavone]
[1]; final concentration of 1 μg/mL
  inhibitory activity against the A/Guizhou/54/89 virus sialidase: about 50%

## COc1ccc(-c2cc(=O)c3c(O)cc(O)c(-c4cc(-c5cc(=O)c6c(O)cc(O)cc6o5)ccc4OC)c3o2)cc1 [isoginkgetin]
[2]
  cytotoxicity (cell viability by the MTT method): showed cytotoxicity

## COc1ccc(-c2cc(=O)c3c(O)cc(O[C@]4(C(=O)O)C[C@H](O)[C@@H](NC(C)=O)[C@H]([C@H](O)[C@H](O)CO)O4)c(-c4cc(-c5cc(=O)c6c(O)cc(OC)cc6o5)ccc4OC)c3o2)cc1 (relative stereo) [Sci-Neu-2, (S)-7″-O-(N-acetylneuraminyl)-7,4′,4′″-tri-O-methylamentoflavone]
[3]
  pIC50: 5.24
[3]; even at a final concentration of 10 μg/mL (second sentence of b311), read-out: inhibitory activity against the A/PR/8/34 virus sialidase
  inhibition at 10 µg/mL: ≥ 70%
[3]; read-out: inhibitory activity against the A/PR/8/34 virus sialidase, final concentration of 10 μg/mL (first sentence of b311)
  inhibition at 10 µg/mL: ≥ 80%
[1]
  pIC50: 5.94
[1]; final concentration of 1 μg/mL
  inhibition at 1 µg/mL: ~50%
[1]; [7]
  inhibition at 10 µg/mL: ≥ 80%
[4]; [7]
  inhibition at 10 µg/mL: 65%
[4]; final concentration of 100 μg/mL
  inhibition at 100 µg/mL: ≥ 80%
other
  melting point: 200 °C (dec.)

## COc1cc(O)c2c(=O)cc(-c3ccc(OC)c(-c4c(O)cc(O)c5c(=O)cc(-c6ccc(O)cc6)oc45)c3)oc2c1 [ginkgetin]
[2]
  cytotoxicity (cell viability by the MTT method): showed cytotoxicity

## COc1c(O)cc(O)c2c(=O)cc(-c3ccc(O)cc3)oc12 [F36, 5,7,4′-trihydroxy-8-methoxyflavone]
Influenza virus [5]
  anti-influenza virus activity in vitro: has anti-influenza virus activity
Influenza virus [6]
  anti-influenza virus activity in vivo: has anti-influenza virus activity
